Reference: patent publication US10473645B2, “Methods for identifying a receptor for a ligand and uses thereof” (UNIVERSITE DE GENEVE, priority 2014, dated 2019)

What was measured:
[1] = target: T1, OR82a (Drosophila melanogaster, UniProt P82986); assay: Drosophila OR transcript level by RT-qPCR after odorant exposure; format: in vivo, Drosphila melanogaster; set-up: from tissue; host or cells: olfactory neurons of living W1118 flies (heads / antennae collected for RNA); settings: 5% odorant in DMSO, 5 hours, fly heads
T1 sequence (P82986 whole entry): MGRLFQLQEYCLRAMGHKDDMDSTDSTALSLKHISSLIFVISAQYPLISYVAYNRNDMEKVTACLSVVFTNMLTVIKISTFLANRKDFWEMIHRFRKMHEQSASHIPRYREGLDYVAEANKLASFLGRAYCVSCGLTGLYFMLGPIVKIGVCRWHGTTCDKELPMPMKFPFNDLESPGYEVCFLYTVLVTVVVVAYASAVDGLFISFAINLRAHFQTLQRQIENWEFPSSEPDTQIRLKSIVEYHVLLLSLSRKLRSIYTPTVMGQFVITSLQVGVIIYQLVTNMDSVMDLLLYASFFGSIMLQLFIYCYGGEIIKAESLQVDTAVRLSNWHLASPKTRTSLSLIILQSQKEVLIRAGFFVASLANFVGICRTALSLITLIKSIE
T1 sequence (Q9VNB5 whole entry partner): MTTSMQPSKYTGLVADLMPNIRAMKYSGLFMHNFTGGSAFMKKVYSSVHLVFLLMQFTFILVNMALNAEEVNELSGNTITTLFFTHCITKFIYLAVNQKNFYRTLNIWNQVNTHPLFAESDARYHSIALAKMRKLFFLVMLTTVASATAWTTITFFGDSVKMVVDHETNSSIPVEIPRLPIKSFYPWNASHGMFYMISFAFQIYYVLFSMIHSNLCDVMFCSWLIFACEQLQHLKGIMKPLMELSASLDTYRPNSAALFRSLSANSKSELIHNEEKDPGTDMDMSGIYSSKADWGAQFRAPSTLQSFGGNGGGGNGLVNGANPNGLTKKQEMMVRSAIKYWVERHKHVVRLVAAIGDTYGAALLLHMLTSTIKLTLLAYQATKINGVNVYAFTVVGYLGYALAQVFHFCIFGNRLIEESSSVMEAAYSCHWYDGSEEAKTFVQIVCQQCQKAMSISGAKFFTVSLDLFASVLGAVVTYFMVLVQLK
Procedure: (§1) Drosophila (W1118) were collected between 0 and 14 hours after hatching. Males and females were exposed separately.
(§2) For flies, after exposure, vials containing the animals were placed upside down in a −80° C. freezer for five minutes, then kept in a −20° C. freezer until dissection. Whole heads were removed by hand and placed in a screw-cap tube containing 1 ml of Trizol (Ambion) and a 0.5 cm diameter steel ball, and kept on ice. Samples were homogenized using four runs of 15 s at 6 m/s on a FastPrep®-24 instrument (MP Biomedicals).
(§3) Samples were cooled on ice between each run. RNA extraction followed the Trizol protocol according to the manufacturer instructions, and using 5 μg of RNase-free glycogen as carrier for RNA precipitation. The RNA pellet was resuspended in 20 μl of RNase-free water and a DNAse treatment (Life Technologies Ambion DNase I®) was performed.
(§4) 24 hours-old Drosphila melanogaster flies were kept in plastic tubes and exposed to either 5% ethyl lactate diluted in DMSO or to 5% geranyl acetate diluted in DMSO. The odorants were spotted on papers that were introduced into the plastic tubes. 10 flies were used per condition (8 independent extracts per condition). 5 hours after exposure heads were collected and RNA extracted.
(§5) The transcript levels for Or67c (a known receptor for ethyl lactate) and Or82a (a known receptor for geranyl acetate) were evaluated by RT-qPCR.

[2] = target: T1, OR82a; settings: Hallem and Carlson, 2006; cited from earlier work
[3] = target: T2, OR67c (Drosophila melanogaster, UniProt Q9VT90); assay: Drosophila OR transcript level by RT-qPCR after odorant exposure; format: in vivo, Drosphila melanogaster; set-up: from tissue; host or cells: olfactory neurons of living W1118 flies (heads / antennae collected for RNA); settings: 5% odorant in DMSO, 5 hours, fly heads
T2 sequence (Q9VT90 whole entry): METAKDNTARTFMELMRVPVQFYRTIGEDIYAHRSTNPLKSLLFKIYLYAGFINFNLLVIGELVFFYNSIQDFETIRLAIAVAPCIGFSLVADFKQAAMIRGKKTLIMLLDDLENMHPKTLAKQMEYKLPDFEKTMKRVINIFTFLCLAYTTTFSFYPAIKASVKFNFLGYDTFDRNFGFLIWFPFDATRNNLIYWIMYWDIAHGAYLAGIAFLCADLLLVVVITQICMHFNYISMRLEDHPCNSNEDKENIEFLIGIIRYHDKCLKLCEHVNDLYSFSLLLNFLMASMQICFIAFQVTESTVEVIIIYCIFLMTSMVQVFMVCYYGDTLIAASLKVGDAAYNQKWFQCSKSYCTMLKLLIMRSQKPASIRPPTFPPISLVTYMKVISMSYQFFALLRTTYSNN
T2 sequence (Q9VNB5 whole entry partner): as the sequence (Q9VNB5 whole entry partner) above
Procedure: as §1, §2, §3, §4, §5

[4] = target: T2, OR67c; settings: Hallem and Carlson, 2006; cited from earlier work

Compound | Or82a mRNA level relative to control ORs [1] [×] | OR82a response previously shown [2] | Or67c mRNA level relative to control ORs [3] [×] | OR67c response previously shown [4]
CC(=O)OC/C=C(\C)CCC=C(C)C [geranyl acetate] | 0.6 | respond |  | 
CCOC(=O)C(C)O (stereo not shown) [ethyl lactate] |  |  | 0.7 | respond
